Patent US6131226A, “1,4-dihydropyridine compounds as bradykinin antagonists” (Pfizer Inc., priority 1996, dated 2000)

System: bradykinin-induced plasma leakage in rat urinary bladder
Assay: bradykinin-induced plasma leakage test in rat urinary bladder
Type: in vivo
Settings: test compound at a concentration of 1.5 μM, i.v. 3 ml/kg, bradykinin 10 nmol/kg i.v.
Description: The bradykinin antagonist activity of the dihydropyridine compounds in vivo is evaluated by a plasma leakage test. This test essentially involve determining the concentration of the individual compound required to reduce by 50% the amount of bradykinin-induced plasma leakage in rat urinary bladder, thereby affording characteristic ED50 values for each compounds tested.
More specifically, the assay is carried out as follows. 3.5-week old male Sprague-Dawlew rats are purchased from Charles River Japan Inc. The rats are fed on stock diet (CRF from Charles River Japan, Inc.) and maintained under the standard conditions (temperature, 23±1° C. and humidity 55±5%) for at least 3 days. The rats are fasted overnight prior to the experiments. Each test group consists of 5 rats. […]
Captopril (5 mg/kg of body weight) is intraperitoneally (i.p.) injected to the rats, and 20 min later the rats are anesthetized by an administration of Nembutal (Abbott) ([…] of body weight). […] The absorbance of the extract is measured spectrophotometrically at 605 nm to determined the dye concentration. The effect of the individual test compound is calculated as a percentage of the amount of Evans blue leaked into the urinary bladder as compared to the control (saline for the test compounds).

`COC(=O)C1=C(CCc2ccccc2OC)NC(CC(=O)N2CCN(C3CC4CCC(C3)N4C)CC2)=C(C(=O)OC)C1c1c(Cl)cccc1Cl` (stereo not shown) [dimethyl 4-(2,6-dichlorophenyl)-6-[2-(2-methoxyphenyl)ethyl]-2-[4-(8-methyl-8-azabicyclo[3.2.1]oct-3-yl)-1-piperazinyl]carbonylmethyl-1,4-dihydropyridine-3,5-dicarboxylate] was tested, and the “inhibition of urinary bladder leakage (Evans blue)” value was “did not show significant in vivo activity”.
